Results from the supplement of paper PMC8671470.

system: BV-173; experiment: cell viability (% survival relative to DMSO control, bortezomib = 0%); higher = less cytotoxic; conditions: 1 nM; 72 h
Summary of the method: (§1)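 Percent survival is reported as the mean of duplicate wells. Cells from 10 AML and 5 CML lines were plated in 384-well plates containing compounds at 1, 10, 100, 1000 or 10000 nM and kept for 72 h at 37 °C in 5% CO2. Readout used CellTiter-Glo luminescence, scaled so that vehicle equals 100% and a 10 µM positive control equals 0%.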

In order of falling cell viability:
1. Cc1cccc(Nc2cc(Cl)nc(SCC(=O)O)n2)c1C [Pirinixic acid]  106%
2. CC(C)CC(=O)N[C@H](C(=O)N[C@H](C(=O)N[C@@H](CC(C)C)[C@@H](O)CC(=O)N[C@@H](C)C(=O)N[C@@H](CC(C)C)[C@@H](O)CC(=O)O)C(C)C)C(C)C [Pepstatin A]  94.2%
3. C=CCN(C)CCCCCCOc1ccc(C(=O)c2ccc(Br)cc2)c(F)c1.O=C(O)/C=C/C(=O)O [Ro 48-8071 fumarate]  90.3%
4. C[C@]12C=CC(=O)C=C1CC[C@@H]1[C@@H]2[C@@H](O)C[C@@]2(C)[C@H]1CC[C@]2(O)C(=O)CO [Prednisolone]  82.5%

same assay, conditions: 10 nM; 72 h

In order of rising cell viability:
1. C=CCN(C)CCCCCCOc1ccc(C(=O)c2ccc(Br)cc2)c(F)c1.O=C(O)/C=C/C(=O)O [Ro 48-8071 fumarate]  86.2%
2. CC(C)CC(=O)N[C@H](C(=O)N[C@H](C(=O)N[C@@H](CC(C)C)[C@@H](O)CC(=O)N[C@@H](C)C(=O)N[C@@H](CC(C)C)[C@@H](O)CC(=O)O)C(C)C)C(C)C [Pepstatin A]  86.5%
3. Cc1cccc(Nc2cc(Cl)nc(SCC(=O)O)n2)c1C [Pirinixic acid]  90.6%
4. CCCCCCCC/C=C\CCCCCCCC(=O)Nc1ccccc1 [Octadec-9-Enoic Acid Phenylamide]  94.8%
5. CC[C@H](C)[C@H](N)C(=O)N1CCSC1 [P32/98]  95.3%
6. OC[C@H]1O[C@@H](n2cnc3c2N=CNC[C@H]3O)C[C@@H]1O [Pentostatin]  97.4%
7. CN(Cc1cnc2nc(N)nc(N)c2n1)c1ccc(C(=O)N[C@@H](CCC(=O)O)C(=O)O)cc1 [Methotrexate]  98.3%
8. COC(=O)c1cc2c(C(F)(F)F)cc(-c3ccccc3)cc2n1O [NHI-2]  100%
9. CC(=O)Nc1nc(C)c(-c2ccc(Cl)c(S(=O)(=O)NCCO)c2)s1 [PIK93]  103%
10. C[C@]12C=CC(=O)C=C1CC[C@@H]1[C@@H]2[C@@H](O)C[C@@]2(C)[C@H]1CC[C@]2(O)C(=O)CO [Prednisolone]  104%

same assay, conditions: 100 nM; 72 h

In order of falling cell viability:
1. OC[C@H]1O[C@@H](n2cnc3c2N=CNC[C@H]3O)C[C@@H]1O [Pentostatin]  117%
2. CC(C)CC(=O)N[C@H](C(=O)N[C@H](C(=O)N[C@@H](CC(C)C)[C@@H](O)CC(=O)N[C@@H](C)C(=O)N[C@@H](CC(C)C)[C@@H](O)CC(=O)O)C(C)C)C(C)C [Pepstatin A]  106%
3. Cc1cccc(Nc2cc(Cl)nc(SCC(=O)O)n2)c1C [Pirinixic acid]  104%
4. COC(=O)c1cc2c(C(F)(F)F)cc(-c3ccccc3)cc2n1O [NHI-2]  101%
5. CCCCCCCC/C=C\CCCCCCCC(=O)Nc1ccccc1 [Octadec-9-Enoic Acid Phenylamide]  99.7%
6. CC[C@H](C)[C@H](N)C(=O)N1CCSC1 [P32/98]  96.7%
7. CC(=O)Nc1nc(C)c(-c2ccc(Cl)c(S(=O)(=O)NCCO)c2)s1 [PIK93]  95.8%
8. C=CCN(C)CCCCCCOc1ccc(C(=O)c2ccc(Br)cc2)c(F)c1.O=C(O)/C=C/C(=O)O [Ro 48-8071 fumarate]  66.2%
9. C[C@]12C=CC(=O)C=C1CC[C@@H]1[C@@H]2[C@@H](O)C[C@@]2(C)[C@H]1CC[C@]2(O)C(=O)CO [Prednisolone]  18.8%
10. CN(Cc1cnc2nc(N)nc(N)c2n1)c1ccc(C(=O)N[C@@H](CCC(=O)O)C(=O)O)cc1 [Methotrexate]  2.71%

same assay, conditions: 1000 nM; 72 h

In order of falling cell viability:
1. CC[C@H](C)[C@H](N)C(=O)N1CCSC1 [P32/98]  115%
2. CC(C)CC(=O)N[C@H](C(=O)N[C@H](C(=O)N[C@@H](CC(C)C)[C@@H](O)CC(=O)N[C@@H](C)C(=O)N[C@@H](CC(C)C)[C@@H](O)CC(=O)O)C(C)C)C(C)C [Pepstatin A]  101%
3. CCCCCCCC/C=C\CCCCCCCC(=O)Nc1ccccc1 [Octadec-9-Enoic Acid Phenylamide]  100%
4. OC[C@H]1O[C@@H](n2cnc3c2N=CNC[C@H]3O)C[C@@H]1O [Pentostatin]  94.5%
5. Cc1cccc(Nc2cc(Cl)nc(SCC(=O)O)n2)c1C [Pirinixic acid]  92.1%
6. COC(=O)c1cc2c(C(F)(F)F)cc(-c3ccccc3)cc2n1O [NHI-2]  73.7%
7. C=CCN(C)CCCCCCOc1ccc(C(=O)c2ccc(Br)cc2)c(F)c1.O=C(O)/C=C/C(=O)O [Ro 48-8071 fumarate]  63.3%
8. CC(=O)Nc1nc(C)c(-c2ccc(Cl)c(S(=O)(=O)NCCO)c2)s1 [PIK93]  45.6%
9. C[C@]12C=CC(=O)C=C1CC[C@@H]1[C@@H]2[C@@H](O)C[C@@]2(C)[C@H]1CC[C@]2(O)C(=O)CO [Prednisolone]  1.67%
10. CN(Cc1cnc2nc(N)nc(N)c2n1)c1ccc(C(=O)N[C@@H](CCC(=O)O)C(=O)O)cc1 [Methotrexate]  1.64%

same assay, conditions: 10000 nM; 72 h

In order of rising cell viability:
1. CN(Cc1cnc2nc(N)nc(N)c2n1)c1ccc(C(=O)N[C@@H](CCC(=O)O)C(=O)O)cc1 [Methotrexate]  2.28%
2. C[C@]12C=CC(=O)C=C1CC[C@@H]1[C@@H]2[C@@H](O)C[C@@]2(C)[C@H]1CC[C@]2(O)C(=O)CO [Prednisolone]  2.49%
3. CC(=O)Nc1nc(C)c(-c2ccc(Cl)c(S(=O)(=O)NCCO)c2)s1 [PIK93]  9.29%
4. C=CCN(C)CCCCCCOc1ccc(C(=O)c2ccc(Br)cc2)c(F)c1.O=C(O)/C=C/C(=O)O [Ro 48-8071 fumarate]  29.5%
5. CC[C@H](C)[C@H](N)C(=O)N1CCSC1 [P32/98]  84%
6. CC(C)CC(=O)N[C@H](C(=O)N[C@H](C(=O)N[C@@H](CC(C)C)[C@@H](O)CC(=O)N[C@@H](C)C(=O)N[C@@H](CC(C)C)[C@@H](O)CC(=O)O)C(C)C)C(C)C [Pepstatin A]  88.4%
7. Cc1cccc(Nc2cc(Cl)nc(SCC(=O)O)n2)c1C [Pirinixic acid]  93.5%
8. COC(=O)c1cc2c(C(F)(F)F)cc(-c3ccccc3)cc2n1O [NHI-2]  94.2%
9. CCCCCCCC/C=C\CCCCCCCC(=O)Nc1ccccc1 [Octadec-9-Enoic Acid Phenylamide]  95.7%
10. OC[C@H]1O[C@@H](n2cnc3c2N=CNC[C@H]3O)C[C@@H]1O [Pentostatin]  101%

system: HEL; experiment: as above; conditions: 1 nM; 72 h
Summary of the method: as §1

In order of falling cell viability:
1. C=CCN(C)CCCCCCOc1ccc(C(=O)c2ccc(Br)cc2)c(F)c1.O=C(O)/C=C/C(=O)O [Ro 48-8071 fumarate]  112%
2. CC(=O)Nc1nc(C)c(-c2ccc(Cl)c(S(=O)(=O)NCCO)c2)s1 [PIK93]  111%
3. CC[C@H](C)[C@H](N)C(=O)N1CCSC1 [P32/98]  105%
4. OC[C@H]1O[C@@H](n2cnc3c2N=CNC[C@H]3O)C[C@@H]1O [Pentostatin]  105%
5. C[C@]12C=CC(=O)C=C1CC[C@@H]1[C@@H]2[C@@H](O)C[C@@]2(C)[C@H]1CC[C@]2(O)C(=O)CO [Prednisolone]  105%
6. CCCCCCCC/C=C\CCCCCCCC(=O)Nc1ccccc1 [Octadec-9-Enoic Acid Phenylamide]  104%
7. CN(Cc1cnc2nc(N)nc(N)c2n1)c1ccc(C(=O)N[C@@H](CCC(=O)O)C(=O)O)cc1 [Methotrexate]  102%
8. CC(C)CC(=O)N[C@H](C(=O)N[C@H](C(=O)N[C@@H](CC(C)C)[C@@H](O)CC(=O)N[C@@H](C)C(=O)N[C@@H](CC(C)C)[C@@H](O)CC(=O)O)C(C)C)C(C)C [Pepstatin A]  98.8%
9. Cc1cccc(Nc2cc(Cl)nc(SCC(=O)O)n2)c1C [Pirinixic acid]  84%
10. COC(=O)c1cc2c(C(F)(F)F)cc(-c3ccccc3)cc2n1O [NHI-2]  83.5%

same assay, conditions: 10 nM; 72 h

In order of rising cell viability:
1. CN(Cc1cnc2nc(N)nc(N)c2n1)c1ccc(C(=O)N[C@@H](CCC(=O)O)C(=O)O)cc1 [Methotrexate]  18.6%
2. COC(=O)c1cc2c(C(F)(F)F)cc(-c3ccccc3)cc2n1O [NHI-2]  91.9%
3. CCCCCCCC/C=C\CCCCCCCC(=O)Nc1ccccc1 [Octadec-9-Enoic Acid Phenylamide]  92.9%
4. CC(=O)Nc1nc(C)c(-c2ccc(Cl)c(S(=O)(=O)NCCO)c2)s1 [PIK93]  94%
5. CC[C@H](C)[C@H](N)C(=O)N1CCSC1 [P32/98]  98.7%
